{"source": "paper PMC6279743", "about": "“A small molecule ApoE4-targeted therapeutic candidate that normalizes sirtuin 1 levels and improves cognition in an Alzheimer’s disease mouse model” (Scientific Reports, 2018)", "key": {"[1]": {"tested_on": "SirT1 levels in N2a-E4 cells", "test": "SirT1 AlphaLISA in N2a-E4 cells (HTS, secondary and dose-response testing)", "assay_type": "cell-based, murine", "conditions": "for EC50: Mus musculus", "protocol": "For HTS we tested a portion of the UCLA compound library (10 plates) including the NIH Clinical Collection library (3 plates). Complete medium (25 µL) was added to each well of 384-well plates, then library compounds were added (250 nL) followed by a suspension of 4 × 10^5 cells/mL murine neuroblastoma N2a cells (25 μL) stably transfected with ApoE4 (N2a-E4). After incubation of the N2a-E4 cells with compounds for 24 hrs at 37 °C and 5% CO2, all but ~6 μL of medium were removed and AlphaLISA Lysis Buffer complemented with HALT protease/phosphatase inhibitor (20 μL, 1X final) was added to each well. To maximize lysis, the plates were frozen at −80 °C. For the AlphaLISA, lysates were thawed and vortexed for 1 min at 3000 rpm.\nThe AlphaLISA comprises streptavidin donor beads, biotinylated anti-SirT1 N-terminal antibody (19A7AB4), and acceptor beads conjugated to the anti-SirT1 C-terminal antibody (1F3); when the target protein is bound by both antibodies, the beads are in close enough proximity for a transfer of ^1O2 and emission of a detectable signal (Supplementary Fig. S3). For the AlphaLISA, a 384-proxy plate was preloaded with AlphaLISA buffer (2 µL, 1X) with HALT (1X), then cell lysate (2 μL) was transferred to the proxy plate followed by the antibody-mix (2 μL). After incubation at room temperature for 1 hr, the donor bead mixture was added (2 µL) and incubated for an additional 30 min. The plates were then read in an Envision plate reader. All points are one replicate. The standard curve is generated by serial dilution of recombinant SirT1 to assess the linear range of the assay; study samples undergo serial dilution as well. We use A03 as a positive control in the HTS assay. The Z-value, while not ideal, was <1 for the assay (Supplementary Fig. S3).\nCompound in medium (50 µL, 2X) was loaded into a 96-well plate, then 4 × 10^4 cells were added to each well; 24 hrs later the medium was removed and cells lysed. Lysate protein concentration was determined using the Bradford assay according to the manufacturer’s instructions. SirT1 was determined in lysates using the SirT1 AlphaLISA as described above."}, "[2]": {"tested_on": "E4FAD mice", "test": "Novel Object Recognition (NOR) in 56-day study", "assay_type": "in vivo", "conditions": "total time with both objects, vs E4FAD Veh", "protocol": "E4FAD mice were 10–12 mo and NTg mice 7–9 mo at the start of the study.\nAll mice underwent NOR testing the last week of dosing. Mice were acclimated to a 30 × 40 cm arena for 15 minutes 24 hrs before acquisition. Individual mice underwent acquisition by exposure to two identical objects for 10 min. and then were returned to the home cage overnight. For the probe, individual mice were returned to the arena wherein one of the objects had been changed. Mice were allowed to explore the objects for 10 minutes. Both the acquisition and probe were recorded on tripod-mounted video cameras. The number of discreet interactions with each object (nose within 1 cm of the object) and time spent with each object were scored by personnel blind to the treatment and genotype of the mice; scores were spot-checked by a second scorer. The discrimination index (DI) was calculated by subtracting time spent (or number of interactions) with the familiar object (TF) from time spent (or number of interactions) with the novel object (TN), and then dividing that value by the sum of those two values [DI = (TN − TF)/(TN + TF)][73]."}}, "note": "Like-named read-outs stand apart in the source and are kept apart here.", "data": [{"molecule": "CC(N)C(=O)OC(C)(C)Cc1ccc(Cl)cc1", "note": "(stereo not drawn) [A03, alaproclate]", "values": [{"measurement": "EC50", "setting": "[1]; read-out: EC50 for enhancement of SirT1, N2a-E4 cells, dose-response curve, n = 3 at each concentration", "result": 2300, "unit": "nM"}, {"measurement": "EC50", "setting": "[1]; N2a-E4 cells, dose-response curve, n = 3 at each concentration, read-out: EC50 for enhancement of SirT1", "result": 2000, "unit": "nM"}, {"measurement": "Dose-response increase in SirT1 in secondary testing", "setting": "[1]; N2a-E4 cells, 1, 5 and 10 μM", "result": "showed a dose-response"}, {"measurement": "SirT1 increase, racemate vs enantiomers", "setting": "[1]; N2a-E4 cells, 5 and 50 μM, n = 3 wells", "result": "increase SirT1 in N2a-E4 with high significance"}, {"measurement": "SirT1 level in HTS", "setting": "[1]; N2a-E4 cells, 24 hrs, NIH Clinical Collection screen, A03 5 μM as positive control", "result": "significantly increased SirT1"}, {"measurement": "SirT1 (normalized to protein)", "setting": "[1]; N2a-E4 cells, A03 at 5 or 50 μM vs DMSO", "result": "dose-response increase"}, {"measurement": "SirT1 increase vs DMSO control at 1 μM", "setting": "[1]; secondary assay, N2a-E4 cells, 1 μM, n = 6 wells", "result": "modest but significant increases"}, {"measurement": "SirT1 increase vs DMSO control at 5 and 10 μM", "setting": "[1]; secondary assay, N2a-E4 cells, 5 and 10 μM, n = 6 wells", "result": "increased SirT1"}, {"measurement": "Exploration time in NOR", "setting": "[2]", "result": "similar"}]}]}
